Like-named read-outs stand apart in the source and are kept apart here.
Molecular target: Recombinant human factor B (Homo sapiens (Human), UniProt P00751)
Experiment: Human Complement Factor B TR-FRET Assay
Assay type: binding
Settings: * = assay behavior at and above the stated concentration prevented IC50 determination
Protocol: The time-gated decrease in fluorescence intensity related to the competition between labeled and unlabeled factor B ligands was recorded at both 620 nm and 665 nm, 70 μs after excitation at 337 nm using a microplate spectrofluorimeter.

[1] = displacement of labeled factor B ligand, read-out: hFactor-B TR-FRET Qualified IC50

Sequence of Recombinant human factor B (P00751 26-764): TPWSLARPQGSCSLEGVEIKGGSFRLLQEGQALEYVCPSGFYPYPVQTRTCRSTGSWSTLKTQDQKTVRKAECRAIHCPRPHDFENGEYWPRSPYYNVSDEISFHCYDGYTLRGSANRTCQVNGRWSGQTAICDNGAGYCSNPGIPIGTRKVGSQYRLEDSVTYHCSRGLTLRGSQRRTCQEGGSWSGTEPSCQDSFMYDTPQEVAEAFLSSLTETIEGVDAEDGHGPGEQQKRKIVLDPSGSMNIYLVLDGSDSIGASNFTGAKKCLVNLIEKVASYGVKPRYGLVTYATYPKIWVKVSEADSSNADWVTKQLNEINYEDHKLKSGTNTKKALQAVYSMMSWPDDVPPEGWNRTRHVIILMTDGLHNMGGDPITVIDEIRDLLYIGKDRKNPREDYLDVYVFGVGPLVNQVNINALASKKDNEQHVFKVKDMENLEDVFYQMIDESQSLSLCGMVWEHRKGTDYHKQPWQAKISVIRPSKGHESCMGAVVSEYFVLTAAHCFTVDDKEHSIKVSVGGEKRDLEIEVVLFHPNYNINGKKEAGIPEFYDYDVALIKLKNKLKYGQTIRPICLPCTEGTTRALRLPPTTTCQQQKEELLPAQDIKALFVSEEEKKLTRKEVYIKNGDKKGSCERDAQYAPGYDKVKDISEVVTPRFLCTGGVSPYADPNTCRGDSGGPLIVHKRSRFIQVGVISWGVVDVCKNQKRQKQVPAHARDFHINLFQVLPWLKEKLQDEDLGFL

| SMILES | IC50 [1] [nM] | IC50 (hFactor-B TR-FRET Qualified IC50, displacement of labeled factor B ligand) [nM] |
| --- | --- | --- |
| COc1cc(C)c2[nH]ccc2c1CN1CCC2(C[C@H]1c1cnn(C)c1)CC(F)(F)C2 (single isomer, unassigned) [Ex-39] | 10.3 | – |
| COc1cc(C)c2[nH]ccc2c1CN1CCC2(CC(F)C2)C[C@H]1c1ccc(C(=O)O)cc1 (single isomer, unassigned) [Ex-9, 4-(2-fluoro-7-((5-methoxy-7-methyl-1H-indol-4-yl)methyl)-7-azaspiro[3.5]nonan-6-yl)benzoic acid] | 2.1 | – |
| Cc1cc(C2CC2(F)F)c(CN2CCC3(C[C@H]2c2ccc(C(=O)O)cc2)CC(F)(F)C3)c2cc[nH]c12 (single isomer, unassigned) [Ex-24] | 31.4 | – |
| COc1cc(C)c2[nH]ccc2c1CN1CCC2(C[C@@H]1c1ccc(C(=O)O)cc1)CC(C)(F)C2 (single isomer, unassigned) [Ex-2] | 6810 | – |
| COc1cc(C)c2[nH]ccc2c1CN1CCC2(CC(F)C2)C[C@@H]1c1ccc(C(=O)O)cc1 (single isomer, unassigned) [Ex-8] | 227 | – |
| COc1cc(C)c2[nH]ccc2c1CN1CCC2(C[C@H]1c1ccc(-c3nnn[nH]3)cc1)CC(F)(F)C2 (single isomer, unassigned) [Ex-55] | 0.6 | – |
| Cc1cc(C2CC2)c(CN2CCC3(C[C@@H]2c2ccc(C(C)(C)O)cc2)CC(F)(F)C3)c2cc[nH]c12 (single isomer, unassigned) [Ex-28] | > 400 | – |
| COc1cc(C)c2[nH]ccc2c1CN1CCC2(CC1c1ccc(C(=O)O)cc1)CC(C)(O)C2 (racemic) [Ex-13] | 29.4 | – |
| COc1cc(C)c2[nH]ccc2c1CN1CCC2(CCC(F)(F)C2)C[C@H]1c1ccc(C(=O)O)cc1 (single isomer, unassigned) [Ex-20] | 7.6 | – |
| COc1cc(C)c2[nH]ccc2c1CN1CCC2(C[C@H]1c1ccc(C(=O)O)cc1)CC(C)(F)C2 (single isomer, unassigned) [Ex-3] | 40.7 | – |
| Cc1cc(C2CC2)c(CN2CCC3(C[C@H]2c2ccc(C4(O)COC4)cc2)CC(F)(F)C3)c2cc[nH]c12 (single isomer, unassigned) [Ex-25] | 4 | – |
| COc1cc(C)c2[nH]ccc2c1CN1CCC2(C[C@@H]1c1cnn(C)c1)CC(F)(F)C2 (single isomer, unassigned) [Ex-40] | 864 | – |
| Cc1cc(C2CC2)c(CN2CCC3(C[C@@H]2c2ccc(-c4nnn[nH]4)nc2)CC(F)(F)C3)c2cc[nH]c12 (single isomer, unassigned) [Ex-63] | 434 | – |
| Cc1cc(C2CC2)c(CN2CCC3(CC2c2ccc(C4(O)COC4)cc2)CC(F)(F)C3)c2cc[nH]c12 (racemic) [Ex-49, 3-(4-(7-((5-cyclopropyl-7-methyl-1H-indol-4-yl)methyl)-2,2-difluoro-7-azaspiro[3.5]nonan-6-yl)phenyl)oxetan-3-ol] | 5.6 | – |
| Cc1cc(C2CC2)c(CN2CCC3(C[C@H]2c2ccc(-c4nnn[nH]4)cc2)CC(F)(F)C3)c2cc[nH]c12 (single isomer, unassigned) [Ex-33] | 1.6 | – |
| Cc1cc(C)c2[nH]ccc2c1CN1CCC2(C[C@H]1c1ccc(C(=O)O)cc1)CC(F)(F)C2 [Ex-22] | 2.4 | – |
| COc1cc(C)c2[nH]ccc2c1CN1CCC2(CC1c1ccc(C(=O)O)cc1)CC(C)(O)C2 (racemic) [Ex-16] | 434 | – |
| Cc1cc(C2CC2(F)F)c(CN2CCC3(C[C@H]2c2ccc(C(=O)O)cc2)CC(F)(F)C3)c2cc[nH]c12 (single isomer, unassigned) [Ex-23] | 8.9 | – |
| Cc1cc(C2CC2)c(CN2CCC3(C[C@@H]2c2ccc(-c4ccn[nH]4)cc2)CC(F)(F)C3)c2cc[nH]c12 (single isomer, unassigned) [Ex-30] | > 100 | – |
| COc1cc(C)c2[nH]ccc2c1CN1CCC2(C[C@H]1c1ccc(-c3nnn[nH]3)nc1)CC(F)(F)C2 (single isomer, unassigned) [Ex-59] | 2.1 | – |
| COc1cc(C)c2[nH]ccc2c1CN1CCC2(C[C@@H]1c1ccc(C(=O)O)cc1)CC(C)(F)C2 (single isomer, unassigned) [Ex-4] | 461 | – |
| COc1cc(C)c2[nH]ccc2c1CN1CCC2(CC1c1cnn(C)c1)CC(F)(F)C2 (racemic) [Ex-36] | 24.5 | – |
| COc1cc(C)c2[nH]ccc2c1CN1CCC2(CC(F)C2)C[C@H]1c1ccc(C(=O)O)cc1 (single isomer, unassigned) [Ex-7] | 0.8 | – |
| COc1cc(C)c2[nH]ccc2c1CN1CCC2(C[C@@H]1c1ccccc1)CC(F)(F)C2 (single isomer, unassigned) [Ex-38] | 5510 | – |
| COc1cc(C)c2[nH]ccc2c1CN1CCC2(C[C@H]1c1ccc(C(=O)O)cc1)CC(F)(F)C2 [Ex-5, (S)-4-(2,2-difluoro-7-((5-methoxy-7-methyl-1H-indol-4-yl)methyl)-7-azaspiro[3.5]nonan-6-yl)benzoic acid] | 0.5 | – |
| COc1cc(C)c2[nH]ccc2c1CN1CCC2(C[C@H]1c1cnn(CC(=O)O)c1)CC(F)(F)C2 [Ex-45] | 9.4 | – |
| COc1cc(C)c2[nH]ccc2c1CN1CCC2(CCC(F)(F)C2)C[C@@H]1c1ccc(C(=O)O)cc1 (single isomer, unassigned) [Ex-17] | 320 | – |

| SMILES | IC50 [1] [nM] | IC50 (hFactor-B TR-FRET Qualified IC50, displacement of labeled factor B ligand) [nM] |
| --- | --- | --- |
| COc1cc(C)c2[nH]ccc2c1CN1CCC2(COC2)C[C@H]1c1ccc(C(=O)O)cc1 [Ex-11] | 5.8 | – |
| Cc1cc(C2CC2)c(CN2CCC3(C[C@@H]2c2ccc(-c4nnn[nH]4)cc2)CC(F)(F)C3)c2cc[nH]c12 (single isomer, unassigned) [Ex-34] | 124 | – |
| Cc1cc(C2CC2)c(CN2CCC3(CC2c2ccc(-c4nnn[nH]4)nc2)CC(F)(F)C3)c2cc[nH]c12 (racemic) [Ex-61, (SR)-6-(6-(1H-tetrazol-5-yl)pyridin-3-yl)-7-((5-cyclopropyl-7-methyl-1H-indol-4-yl)methyl)-2,2-difluoro-7-azaspiro[3.5]nonane] | 3.8 | – |
| COc1cc(C)c2[nH]ccc2c1CN1CCC2(CC1c1ccc(-c3nnn[nH]3)cc1)CC(F)(F)C2 (racemic) [Ex-54, (SR)-6-(4-(1H-tetrazol-5-yl)phenyl)-2,2-difluoro-7-((5-methoxy-7-methyl-1H-indol-4-yl)methyl)-7-azaspiro[3.5]nonane] | 2.2 | – |
| COc1cc(C)c2[nH]ccc2c1CN1CCC2(C[C@@H]1c1ccc(-c3nnn[nH]3)nc1)CC(F)(F)C2 (single isomer, unassigned) [Ex-60] | 152 | – |
| COc1cc(C)c2[nH]ccc2c1CN1CCC2(COC2)C[C@@H]1c1ccc(C(=O)O)cc1 [Ex-12] | 5300 | – |
| Cc1cc(C2CC2)c(CN2CCC3(CC2c2ccc(-c4nnn[nH]4)cc2)CC(F)(F)C3)c2cc[nH]c12 (racemic) [Ex-57, 6-(4-(1H-tetrazol-5-yl)phenyl)-7-((5-cyclopropyl-7-methyl-1H-indol-4-yl)methyl)-2,2-difluoro-7-azaspiro[3.5]nonane] | 5 | – |
| Cc1cc(C2CC2)c(CN2CCC3(C[C@@H]2c2ccc(C4(O)COC4)cc2)CC(F)(F)C3)c2cc[nH]c12 (single isomer, unassigned) [Ex-26] | > 400 | – |
| COc1cc(C)c2[nH]ccc2c1CN1CCC2(C[C@@H]1c1cnn(C(F)F)c1)CC(F)(F)C2 (single isomer, unassigned) [Ex-42] | 861 | – |
| COc1cc(C)c2[nH]ccc2c1CN1CCC2(C[C@H]1c1ccc(C(=O)O)cc1)CC2(F)F (some centres unmarked) [Ex-70] | 14.7 | – |
| Cc1cc(C2CC2)c(CN2CCC3(C[C@H]2c2ccc(C(C)(C)O)cc2)CC(F)(F)C3)c2cc[nH]c12 (single isomer, unassigned) [Ex-27] | 6.9 | – |
| Cc1cc(C)c2[nH]ccc2c1CN1CCC2(C[C@@H]1c1ccc(C(=O)O)nc1)CC(F)(F)C2 [Ex-69] | 1230 | – |
| COc1cc(C)c2[nH]ccc2c1CN1CCC2(C[C@@H]1c1ccc(-c3nnn[nH]3)cc1)CC(F)(F)C2 (single isomer, unassigned) [Ex-56] | 58.6 | – |
| COc1cc(C)c2[nH]ccc2c1CN1CCC2(CC1c1ccc(C(=O)O)cc1)CC(F)(F)C2 (racemic) [Ex-47] | – | 2.5 |
| COCCn1cc([C@H]2CC3(CCN2Cc2c(OC)cc(C)c4[nH]ccc24)CC(F)(F)C3)cn1 (single isomer, unassigned) [Ex-43] | 2790 | – |
| Cc1ccc(CN2CCC3(C[C@H]2c2ccc(C(=O)O)cc2)CC(F)(F)C3)c2cc[nH]c12 [Ex-53] | 7.7 | – |
| Cc1cc(C2CC2)c(CN2CCC3(C[C@@H]2c2ccc(-n4cccn4)cc2)CC(F)(F)C3)c2cc[nH]c12 (single isomer, unassigned) [Ex-32] | > 400 | – |
| Cc1cc(C2CC2)c(CN2CCC3(C[C@H]2c2ccc(-c4ccn[nH]4)cc2)CC(F)(F)C3)c2cc[nH]c12 (single isomer, unassigned) [Ex-29] | 5.1 | – |
| Cc1cc(C2CC2)c(CN2CCC3(CC2c2ccc(-c4ccn[nH]4)cc2)CC(F)(F)C3)c2cc[nH]c12 (racemic) [Ex-51] | 4.2 | – |
| Cc1cc(C2CC2)c(CN2CCC3(C[C@H]2c2ccc(C(=O)O)cc2)CC(F)(F)C3)c2cc[nH]c12 [Ex-21, (S)-4-(7-((5-cyclopropyl-7-methyl-1H-indol-4-yl)methyl)-2,2-difluoro-7-azaspiro[3.5]nonan-6-yl)benzoic acid] | 1.4 | – |
| COc1cc(C)c2[nH]ccc2c1CN1CCC2(C[C@@H]1c1ccc(C(=O)O)cc1)CC(F)(F)C2 [Ex-6, (R)-4-(2,2-difluoro-7-((5-methoxy-7-methyl-1H-indol-4-yl)methyl)-7-azaspiro[3.5]nonan-6-yl)benzoic acid] | 714 | – |
| COc1cc(C)c2[nH]ccc2c1CN1CCC2(C[C@H]1c1ccc(C(=O)O)nc1)CC(F)(F)C2 [Ex-64] | 2.1 | – |
| Cc1cc(C2CC2)c(CN2CCC3(C[C@H]2c2ccc(C(=O)O)nc2)CC(F)(F)C3)c2cc[nH]c12 [Ex-66] | 2.1 | – |
| COc1cc(C)c2[nH]ccc2c1CN1CCC2(C[C@H]1c1ccc(C(=O)O)cc1)CC(C)(F)C2 (single isomer, unassigned) [Ex-1] | 0.5 | – |
| COCCn1cc([C@@H]2CC3(CCN2Cc2c(OC)cc(C)c4[nH]ccc24)CC(F)(F)C3)cn1 (single isomer, unassigned) [Ex-44] | 9.9 | – |
| Cc1cc(C2CC2)c(CN2CCC3(C[C@H]2c2ccc(-c4nnn[nH]4)nc2)CC(F)(F)C3)c2cc[nH]c12 (single isomer, unassigned) [Ex-62] | 1.9 | – |

— patent US20250115572A1, “SPIROCYCLIC PIPERIDINYL DERIVATIVES AS COMPLEMENT FACTOR B INHIBITORS AND USES THEREOF” (Novartis AG, priority 2022, published 2025)
